Where two headings read alike, the source gives them in different places.
How the values were obtained:
[1] = molecular target: DNA-PK phosphorylation at serine 2056 (Homo sapiens (Human), UniProt P78527); assay: DNA-PK phosphorylation at serine 2056 (cellular), bleomycin-treated HCT116 cells, ELISA; format: cell-based; conditions: read-out: IC50 pDNA-PK
Procedure: HCT116 cells were cultivated at 37° C. and 10% CO2 in MEM alpha medium with 10% of foetal calf serum and 2 mM glutamine. The cells were detached from the base of the culture vessels with the aid of trypsin/EDTA, centrifuged off in centrifuge tubes, taken up in fresh medium, and the cell density was determined. 100,000 cells were sown in 1 ml of culture medium per cavity of a 24-well cell culture plate and cultivated overnight. Next day, 10 μM bleomycin (DNA intercalator and inductor of DNA double-strand breaks) and test substances in fresh culture medium were added to the cells, and these were cultivated for a further six hours. […] The 96-well ELISA plates were subsequently treated with a detection antibody (Abcam ab79444: total DNA-PK) and a streptavidin-HRP conjugate. The development of the enzymatic reaction was carried out with the aid of a chemiluminescent reagent, the chemiluminescence was measured with the aid of a Mithras LB940. The signals with the phospho-DNA-PK-specific antibody were standardised to the signal with the antibody against the total protein DNA-PKc. […] The DMSO control was used as blank.

[2] = molecular target: Kv11.1 (hERG) (Homo sapiens (Human), UniProt Q12809); assay: Kv11.1 (hERG) ion channel activity (patch clamp assay), HEK293 cells transfected with hERG gene
[3] = molecular target: DNA-PK (Homo sapiens (Human), UniProt P78527); assay: DNA-PK assay (biochemical), flashplate 33P-ATP kinase assay
Procedure: A) DNA-PK Assay (Biochemical)
The kinase assay was carried out in streptavidin-coated […] microtitre flashplates. […] The reaction was stopped using 50 μl/well of 200 mM EDTA. After incubation for a further 30 min at room temperature, the liquid was removed. Each well was washed three times with 100 μl of 0.9% saline solution. A nonspecific reaction (blank value) was determined using 10 μM of an innate kinase inhibitor. The radioactivity measurement was carried out using a TopCount. IC50 values were calculated in RS1.

[4] = cellular, HCT116 cells, 10 μM bleomycin, six hours
[5] = human, HEK293 cells stably transfected with the hERG gene, Ki [Kv1.11 hERG], patch clamp, HEK293 transfected with hERG gene
[6] = Ki [Kv1.11 hERG], patch clamp, HEK293 transfected with hERG gene
[7] = read-out: Ki [Kv1.11 hERG], patch clamp, HEK293 transfected with hERG gene
[8] = cellular DNA-PK phosphorylation at serine 2056, HCT116
[9] = read-out: Ki [Kv1.11 hERG], hERG patch clamp assay (cells without asterisk)
[10] = human, HEK293 cells stably transfected with the hERG gene, Ki [Kv1.11 hERG], hERG patch clamp assay (cells without asterisk)

Chain of Kv11.1 (hERG) (Q12809 whole entry): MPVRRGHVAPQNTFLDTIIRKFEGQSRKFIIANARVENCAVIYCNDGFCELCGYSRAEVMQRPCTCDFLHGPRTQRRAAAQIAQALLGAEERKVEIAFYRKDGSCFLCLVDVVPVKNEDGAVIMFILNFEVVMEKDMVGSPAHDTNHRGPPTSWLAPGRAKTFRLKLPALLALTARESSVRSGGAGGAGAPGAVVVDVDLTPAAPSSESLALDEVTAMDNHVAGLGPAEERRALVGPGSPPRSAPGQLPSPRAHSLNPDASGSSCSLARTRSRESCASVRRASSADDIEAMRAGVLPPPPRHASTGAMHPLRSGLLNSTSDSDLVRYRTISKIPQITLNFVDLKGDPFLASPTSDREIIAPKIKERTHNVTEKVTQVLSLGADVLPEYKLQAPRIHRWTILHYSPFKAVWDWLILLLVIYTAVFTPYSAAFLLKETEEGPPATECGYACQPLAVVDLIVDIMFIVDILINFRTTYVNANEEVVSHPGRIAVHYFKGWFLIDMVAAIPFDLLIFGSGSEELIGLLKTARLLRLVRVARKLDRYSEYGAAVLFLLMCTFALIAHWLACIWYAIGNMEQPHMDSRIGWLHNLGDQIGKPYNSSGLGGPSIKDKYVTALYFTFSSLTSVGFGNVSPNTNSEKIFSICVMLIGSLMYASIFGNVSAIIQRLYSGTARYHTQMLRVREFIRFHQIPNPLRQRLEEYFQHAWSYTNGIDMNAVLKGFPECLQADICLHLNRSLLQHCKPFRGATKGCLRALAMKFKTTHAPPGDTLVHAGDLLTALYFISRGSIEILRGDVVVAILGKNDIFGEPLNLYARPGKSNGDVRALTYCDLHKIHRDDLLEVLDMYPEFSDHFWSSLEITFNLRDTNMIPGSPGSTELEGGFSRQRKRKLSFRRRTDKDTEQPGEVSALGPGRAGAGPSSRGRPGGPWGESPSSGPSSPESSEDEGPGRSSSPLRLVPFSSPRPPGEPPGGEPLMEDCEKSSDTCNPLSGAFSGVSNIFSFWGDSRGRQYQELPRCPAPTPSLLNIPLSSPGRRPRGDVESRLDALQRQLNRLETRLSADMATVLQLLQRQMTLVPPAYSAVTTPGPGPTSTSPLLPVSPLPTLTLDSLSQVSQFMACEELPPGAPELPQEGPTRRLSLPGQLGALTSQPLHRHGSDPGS

IC50 [1, 4] | IC50 ([3]; enzymatic, 5 μM ATP) | SMILES | Ki [2, 6] | other results
< 0.5 µM | < 0.003 µM | OC(c1ccc(F)c(-c2ncnc3cc(N4CCOCC4)sc23)c1)c1nccnc1Cl (single isomer, unassigned) [Example 24, (3-Chloro-pyrazin-2-yl)-[4-fluoro-3-(6-morpholin-4-yl-thieno-[3,2-d}pyrimidin-4-yl)-phenyl]methanol] | – | Ki [2, 5]: 15 to 25 µM
10 to 30 µM | 0.007 to 0.03 µM | OC(c1cccnn1)c1cc(-c2ncnc3cc(N4CCOCC4)ccc23)c(F)cc1Cl (single isomer, unassigned) [Example 29, [2-Chloro-4-fluoro-5-(7-morpholin-4-yl-quinazolin-4-yl)phenyl]-pyridazin-3-ylmethanol] | – | Ki [2, 5]: 15 to 25 µM
5 to 10 µM | 0.007 to 0.03 µM | Cn1nc(C(O)c2cc(-c3ncnc4cc(N5CCOCC5)ccc34)c(F)cc2Cl)ccc1=O (single isomer, unassigned) [Example 44, 6-{[2-Chloro-4-fluoro-5-(7-morpholin-4-yl-quinazolin-4-yl)phenyl]-hydroxymethyl}-2-methyl-2H-pyridazin-3-one] | 15 to 25 µM | –
< 0.5 µM | < 0.003 µM | Cn1nc(C(O)c2cc(-c3ncnc4cc(N5CCOCC5)ccc34)c(F)cc2Cl)ccc1=O (single isomer, unassigned) [Example 45, 6-{[2-Chloro-4-fluoro-5-(7-morpholin-4-yl-quinazolin-4-yl)phenyl]-hydroxymethyl}-2-methyl-2H-pyridazin-3-one] | – | Ki [2, 7]: 15 to 25 µM
< 0.5 µM | < 0.003 µM | CC(C#N)Oc1ccc(C(O)c2cc(-c3ncnc4cc(N5CCOCC5)ccc34)c(F)cc2Cl)nn1 (single isomer, unassigned) [Example 102, 2-(6-{[2-Chloro-4-fluoro-5-(7-morpholin-4-yl-quinazolin-4-yl)-phenyl)hydroxy-methyl}pyridazin-3-yloxy)propionitrile] | 15 to 25 µM | –
10 to 30 µM | > 0.03 µM | CC(C#N)Oc1ccc(C(O)c2cc(-c3ncnc4cc(N5CCOCC5)ccc34)c(F)cc2Cl)nn1 (single isomer, unassigned) [Example 103, 2-(6-{[2-Chloro-4-fluoro-5-(7-morpholin-4-yl-quinazolin-4-yl)-phenyl]hydroxy-methyl}pyridazin-3-yloxy)propionitrile] | – | Ki [2, 7]: > 25 µM
0.5 to 5 µM | 0.007 to 0.03 µM | CC(C#N)Oc1ccc(C(O)c2cc(-c3ncnc4cc(N5CCOCC5)ccc34)c(F)cc2Cl)nn1 (single isomer, unassigned) [Example 104, 2-(6-{[2-Chloro-4-fluoro-5-(7-morpholin-4-yl-quinazolin-4-yl)-phenyl]hydroxy-methyl}pyridazin-3-yloxy)propionitrile] | – | Ki [2, 7]: 15 to 25 µM
< 0.5 µM | < 0.003 µM | COc1ccc(C(O)c2cc(-c3ncnc4cc(N5CCOCC5)sc34)c(F)cc2Cl)nn1 (single isomer, unassigned) [Example 126, [2-Chloro-4-fluoro-5-(6-morpholin-4-ylthieno[3,2-d}-pyrimidin-4-yl)-phenyl]-(6-methoxy-pyridazin-3-yl)-methanol] | – | Ki [2, 5]: 10 to 15 µM
– | – | COc1ccc(C(O)c2cc(-c3ncnc4cc(N5CCOCC5)cc(F)c34)c(F)cc2Cl)nn1 (single isomer, unassigned) [Example 271, [2-Chloro-4-fluoro-5-(5-fluoro-7-morpholin-4-yl-quinazolin-4-yl)-phenyl]-(6-methoxy-pyridazin-3-yl)-methanol] | – | IC50 [1, 8]: < 0.5 µM; Ki [2, 9]: > 25 µM; IC50 ([3]; biochemical DNA-PK assay): < 0.003 µM
– | – | Cn1c(C(O)c2cc(-c3ncnc4cc(N5CCOCC5)ccc34)ccc2Cl)cccc1=O (single isomer, unassigned) [Example 363, 6-{[2-Chloro-5-(7-morpholin-4-yl-quinazolin-4-yl)-phenyl]hydroxy-methyl}-1-methyl-1H-pyridin-2-one] | – | IC50 [1, 8]: 5 to 10 µM; Ki ([2]; Ki [Kv1.11 hERG], hERG patch clamp assay (cells without asterisk)): 15 to 25 µM; IC50 ([3]; biochemical DNA-PK assay): 0.007 to 0.03 µM
– | – | Cn1c(C(O)c2cc(-c3ncnc4cc(N5CCOCC5)ccc34)ccc2Cl)cccc1=O (single isomer, unassigned) [Example 364, 6-{[2-Chloro-5-(7-morpholin-4-yl-quinazolin-4-yl)-phenyl]hydroxy-methyl}-1-methyl-1H-pyridin-2-one] | – | IC50 [1, 8]: < 0.5 µM; Ki [2, 9]: > 25 µM; IC50 ([3]; biochemical DNA-PK assay): < 0.003 µM
– | – | OC(c1cc(-c2ncnc3cc(N4CCOCC4)ccc23)c(F)cc1Cl)c1nccn2ccnc12 (single isomer, unassigned) [Example 395, [2-Chloro-4-fluoro-5-(7-morpholin-4-yl-quinazolin-4-yl)-phenyl)imidazo-[1,2-a]pyrazin-8-yl-methanol] | – | IC50 [1, 8]: 5 to 10 µM; Ki [2, 10]: 15 to 25 µM; IC50 ([3]; biochemical DNA-PK assay): 0.007 to 0.03 µM
– | – | OC(c1cc(-c2ncnc3cc(N4CCOCC4)ccc23)c(F)cc1Cl)c1nccn2ccnc12 (single isomer, unassigned) [Example 396] | – | IC50 [1, 8]: < 0.5 µM; Ki [2, 9]: > 25 µM; IC50 ([3]; biochemical DNA-PK assay): 0.003 to 0.007 µM
– | – | OC(c1cccnn1)c1cc(-c2ncnc3cc(N4CCOCC4)ccc23)ccc1Cl (single isomer, unassigned) [Example 469, [2-Chloro-5-(7-morpholin-4-yl-quinazolin-4-yl)-phenyl]pyridazin-3-yl-methanol] | – | IC50 [1, 8]: 10 to 30 µM; Ki [2, 10]: 10 to 15 µM; IC50 ([3]; biochemical DNA-PK assay): > 0.03 µM
– | – | OC(c1cccnn1)c1cc(-c2ncnc3cc(N4CCOCC4)ccc23)ccc1Cl (single isomer, unassigned) [Example 470, [2-Chloro-5-(7-morpholin-4-yl-quinazolin-4-yl)-phenyl]pyridazin-3-yl-methanol] | – | IC50 [1, 8]: < 0.5 µM; Ki [2, 9]: > 25 µM; IC50 ([3]; biochemical DNA-PK assay): 0.003 to 0.007 µM
0.5 to 5 µM | 0.003 to 0.007 µM | OC(c1ccc(F)c(-c2ncnc3cc(N4CCOCC4)ccc23)c1)c1c(F)cncc1F (stereo not drawn) [Example 1, (3,5-Difluoropyridin-4-yl)-[4-fluoro-3-(7-morpholin-4-ylquinazolin-4-yl)phenyl]methanol] | 15 to 25 µM | –
< 0.5 µM | 0.003 to 0.007 µM | OC(c1ccc(F)c(-c2ncnc3cc(N4CCOCC4)ccc23)c1)c1cncc(F)c1Cl (stereo not drawn) [Example 2, (4-Chloro-5-fluoropyridin-3-yl)-[4-fluoro-3-(7-morpholin-4-ylquinazolin-4-yl)phenyl]methanol] | 10 to 15 µM | –
0.5 to 5 µM | 0.003 to 0.007 µM | COc1ccnnc1C(O)c1cc(-c2ncnc3cc(N4CCOCC4)ccc23)c(F)cc1Cl (stereo not drawn) [Example 3, [2-Chloro-4-fluoro-5-(7-morpholin-4-yl-quinazolin-4-yl)phenyl]-(4-methoxy-pyridazin-3-yl)methanol] | – | Ki [2, 7]: > 25 µM
10 to 30 µM | > 0.03 µM | O=c1[nH]ccnc1C(O)c1ccc(F)c(-c2ncnc3cc(N4CCOCC4)ccc23)c1 (stereo not drawn) [Example 5, 3-{[4-Fluoro-3-(7-morpholin-4-yl-quinazolin-4-yl)phenyl]-hydroxymethyl]-1H-pyrazin-2-one] | 15 to 25 µM | –
< 0.5 µM | 0.003 to 0.007 µM | COc1cc(C(O)c2ccc(F)c(-c3ncnc4cc(N5CCOCC5)ccc34)c2)c(Cl)nn1 (stereo not drawn) [Example 7, (3-Chloro-6-methoxy-pyridazin-4-yl)-[4-fluoro-3-(7-morpholin-4-yl-quinazolin-4-yl)phenyl]-methanol] | 15 to 25 µM | –
0.5 to 5 µM | 0.007 to 0.03 µM | COc1cc(Cl)nnc1C(O)c1cc(-c2ncnc3cc(N4CCOCC4)ccc23)c(F)cc1Cl (stereo not drawn) [Example 8, [2-Chloro-4-fluoro-5-(7-morpholin-4-yl-quinazolin-4-yl)phenyl]-(6-chloro-4-methoxy-pyridazin-3-yl)methanol] | 10 to 15 µM | –
< 0.5 µM | 0.003 to 0.007 µM | COc1cc(Cl)nnc1C(O)c1ccc(F)c(-c2ncnc3cc(N4CCOCC4)ccc23)c1 (stereo not drawn) [Example 10, (6-Chloro-4-methoxy-pyridazin-3-yl)-[4-fluoro-3-(7-morpholin-4-yl-quinazolin-4-yl)phenyl]-methanol] | – | Ki [2, 7]: > 25 µM
0.5 to 5 µM | 0.003 to 0.007 µM | OC(c1ccc(F)c(-c2ncnc3cc(N4CCOCC4)ccc23)c1)c1nccnc1N1CCCC1 (stereo not drawn) [Example 14, [4-Fluoro-3-(7-morpholin-4-yl-quinazolin-4-yl)phenyl]-(3-pyrrolidin-1-yl-pyrazin-2-yl)methanol] | – | Ki [2, 7]: > 25 µM

SMILES | IC50 [1, 4] | IC50 ([3]; enzymatic, 5 μM ATP) | Ki [2, 6] | other results
CC(C)(C)Oc1nccnc1C(O)c1ccc(F)c(-c2ncnc3cc(N4CCOCC4)ccc23)c1 (stereo not drawn) [Example 13, (3-tert-Butoxy-pyrazin-2-yl)-[4-fluoro-3-(7-morpholin-4-yl-quinazolin-4-yl)phenyl]-methanol] | 10 to 30 µM | > 0.03 µM | 10 to 15 µM | –

Reference: patent US9732094B2, “Arylquinazolines” (Merck Patent GmbH, priority 2013, dated 2017)
